In publication PMC5787524, “Discovery of a FLT3 inhibitor LDD1937 as an anti-leukemic agent for acute myeloid leukemia” (Oncotarget, 2017):
Where two headings read alike, the source gives them in different places.

Key:
FLT3 = target: T1, FLT3 (Homo sapiens, UniProt P36888); experiment: In vitro FLT3 kinase assay (HTRF); assay type: biochemical
T1 construct: Recombinant proteins containing the FLT3 kinase domain were purchased from Carna biosciences (Japan); purchased Carna biosciences (Japan)
T1 sequence (P36888 610-943 limits assumed): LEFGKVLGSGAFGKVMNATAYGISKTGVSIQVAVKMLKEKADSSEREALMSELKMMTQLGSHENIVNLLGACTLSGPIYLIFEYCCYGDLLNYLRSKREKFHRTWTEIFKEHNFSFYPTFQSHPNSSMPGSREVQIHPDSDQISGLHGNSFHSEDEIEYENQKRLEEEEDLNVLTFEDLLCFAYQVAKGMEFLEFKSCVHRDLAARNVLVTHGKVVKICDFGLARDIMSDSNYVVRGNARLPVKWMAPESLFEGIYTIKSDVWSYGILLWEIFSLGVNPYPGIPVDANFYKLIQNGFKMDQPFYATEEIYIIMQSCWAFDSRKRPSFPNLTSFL
Description: The inhibition of the FLT3 kinase activity was measured with homogeneous, time-resolved fluorescence (HTRF) assays. Recombinant proteins containing the FLT3 kinase domain were purchased from Carna biosciences (Japan). Optimal enzyme, ATP, and substrate concentrations were established with the HTRF KinEASE kit (Cisbio, France) according to the manufacturer’s instructions. The FLT3 enzymes were mixed with serially diluted compounds and peptide substrates in a kinase reaction buffer (50 mM HEPES (pH 7.0), 500 μM ATP, 0.1 mM sodium orthovanadate, 5 mM MgCl2, 1 mM DTT, 0.01% bovine serum albumin (BSA), and 0.02% NaN3). After the addition of the reagents for detection, the TR-FRET signal was measured with a Victor multilabel reader (Perkin Elmer, Waltham, MA, USA). […] JAK2, JAK3, cMET, and RET in vitro kinase assays were also carried out using the HTRF assay kit.

cellular senescence = experiment: Senescence-associated β-galactosidase assay (SA-β-gal); assay type: cell-based; conditions: data not shown
JAK2 = JAK2 (Homo sapiens, UniProt O60674); experiment: In vitro JAK2 kinase assay (HTRF); assay type: biochemical; conditions: mean ± S.D.
Description: The inhibition of the FLT3 kinase activity was measured with homogeneous, time-resolved fluorescence (HTRF) assays. Recombinant proteins containing the FLT3 kinase domain were purchased from Carna biosciences (Japan). Optimal enzyme, ATP, and substrate concentrations were established with the HTRF KinEASE kit (Cisbio, France) according to the manufacturer’s instructions. The FLT3 enzymes were mixed with serially diluted compounds and peptide substrates in a kinase reaction buffer (50 mM HEPES (pH 7.0), 500 μM ATP, 0.1 mM sodium orthovanadate, 5 mM MgCl2, 1 mM DTT, 0.01% bovine serum albumin (BSA), and 0.02% NaN3). After the addition of the reagents for detection, the TR-FRET signal was measured with a Victor multilabel reader (Perkin Elmer, Waltham, MA, USA). The IC50 was calculated with nonlinear regression using Prism version 5.01 (GraphPad). JAK2, JAK3, cMET, and RET in vitro kinase assays were also carried out using the HTRF assay kit.

[1] = Parallel artificial membrane permeability (PAMPA) assay; assay type: in vitro ADME

Chain of JAK2 (O60674 whole entry, species assumed, the tested form may be a part): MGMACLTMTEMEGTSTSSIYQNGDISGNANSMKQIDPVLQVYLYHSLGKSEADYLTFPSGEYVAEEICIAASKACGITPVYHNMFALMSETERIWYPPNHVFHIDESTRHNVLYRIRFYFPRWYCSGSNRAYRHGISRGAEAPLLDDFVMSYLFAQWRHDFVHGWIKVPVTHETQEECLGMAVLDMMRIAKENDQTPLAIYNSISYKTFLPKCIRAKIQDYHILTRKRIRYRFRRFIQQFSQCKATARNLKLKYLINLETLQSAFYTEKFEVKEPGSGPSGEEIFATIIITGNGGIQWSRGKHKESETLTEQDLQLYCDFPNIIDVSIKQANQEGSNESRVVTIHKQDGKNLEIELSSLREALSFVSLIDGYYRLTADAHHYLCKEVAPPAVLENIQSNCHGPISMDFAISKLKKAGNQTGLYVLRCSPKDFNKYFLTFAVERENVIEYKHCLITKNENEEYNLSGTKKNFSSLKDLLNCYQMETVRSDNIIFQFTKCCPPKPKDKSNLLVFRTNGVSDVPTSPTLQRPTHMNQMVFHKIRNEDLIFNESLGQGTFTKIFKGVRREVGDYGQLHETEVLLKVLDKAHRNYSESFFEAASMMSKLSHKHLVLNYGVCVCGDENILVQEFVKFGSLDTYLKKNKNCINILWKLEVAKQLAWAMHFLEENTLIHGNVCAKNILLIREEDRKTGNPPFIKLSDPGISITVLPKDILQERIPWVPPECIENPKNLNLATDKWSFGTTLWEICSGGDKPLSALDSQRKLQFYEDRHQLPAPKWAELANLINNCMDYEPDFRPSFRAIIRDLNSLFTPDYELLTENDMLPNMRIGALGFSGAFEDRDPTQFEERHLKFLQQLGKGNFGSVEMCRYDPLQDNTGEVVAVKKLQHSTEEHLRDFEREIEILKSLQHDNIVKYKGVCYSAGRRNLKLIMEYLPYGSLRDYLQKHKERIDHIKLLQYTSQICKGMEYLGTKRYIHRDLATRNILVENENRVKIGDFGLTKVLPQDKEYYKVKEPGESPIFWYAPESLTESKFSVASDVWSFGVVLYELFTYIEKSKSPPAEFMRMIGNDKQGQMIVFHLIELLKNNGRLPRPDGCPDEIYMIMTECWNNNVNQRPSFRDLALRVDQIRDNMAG

IC50 (FLT3; Table 1, mean ± S.D., read-out: IC50 FLT3): 3 ± 0.525 nM | IC50 (FLT3; recombinant FLT3, HTRF, read-out: IC50 FLT3 kinase activity): 3 ± 0.53 nM | SA-β-gal (cellular senescence) (cellular senescence): did not change | IC50 (JAK2): 523 ± 72.7 nM | PAMPA assay result [1]: –4.49 ± 0.140 | PAMPA level of permeability [1]: medium level of permeability
SMILES: COC(=O)c1ccc2c(c1)/C(=C1/Nc3ccccc3/C1=N\OCCN1CCNCC1)C(=O)N2.Cl.Cl [LDD1937, methyl (2Z,3E)-2′-oxo-3-((2-(piperazin-1-yl)ethoxy)imino)-[2,3′-biindolinylidene]-5′-carboxylate dihydrochloride]
